Legend:
U-937 = experiment: Growth inhibition of human U937 cells; format: functional; details: Homo sapiens, U-937
PBMC = experiment: Cytotoxicity against PBMC (unknwon origin); format: cell-based
[1] = biological target: Atypical kinase COQ8A, mitochondrial (Homo sapiens) (UniProt Q8NI60); experiment: Inhibition of wild-type human […] ADCK3 (M280 to Q647 residues) expressed in bacterial expression system assessed as residual activity at 1 uM by Kinomescan method relative to control
[2] = tested on: ALK tyrosine kinase receptor (Homo sapiens), Q9UM73 [L1196M]; experiment: Inhibition of […] human partial length ALK L1196M mutant (I1088 to E1409 residues) expressed in mammalian expression system assessed as residual activity at 1 uM by Kinomescan method relative to control
[3] = biological target: Serine/threonine-protein kinase B-raf (Homo sapiens) (UniProt P15056); experiment: Inhibition of wild-type human partial length BRAF (S429 to E741 residues) expressed in mammalian expression system assessed as residual activity at 1 uM by Kinomescan method relative to control
Sequence of Serine/threonine-protein kinase B-raf (Homo sapiens) (P15056 whole entry, the tested form may be a part): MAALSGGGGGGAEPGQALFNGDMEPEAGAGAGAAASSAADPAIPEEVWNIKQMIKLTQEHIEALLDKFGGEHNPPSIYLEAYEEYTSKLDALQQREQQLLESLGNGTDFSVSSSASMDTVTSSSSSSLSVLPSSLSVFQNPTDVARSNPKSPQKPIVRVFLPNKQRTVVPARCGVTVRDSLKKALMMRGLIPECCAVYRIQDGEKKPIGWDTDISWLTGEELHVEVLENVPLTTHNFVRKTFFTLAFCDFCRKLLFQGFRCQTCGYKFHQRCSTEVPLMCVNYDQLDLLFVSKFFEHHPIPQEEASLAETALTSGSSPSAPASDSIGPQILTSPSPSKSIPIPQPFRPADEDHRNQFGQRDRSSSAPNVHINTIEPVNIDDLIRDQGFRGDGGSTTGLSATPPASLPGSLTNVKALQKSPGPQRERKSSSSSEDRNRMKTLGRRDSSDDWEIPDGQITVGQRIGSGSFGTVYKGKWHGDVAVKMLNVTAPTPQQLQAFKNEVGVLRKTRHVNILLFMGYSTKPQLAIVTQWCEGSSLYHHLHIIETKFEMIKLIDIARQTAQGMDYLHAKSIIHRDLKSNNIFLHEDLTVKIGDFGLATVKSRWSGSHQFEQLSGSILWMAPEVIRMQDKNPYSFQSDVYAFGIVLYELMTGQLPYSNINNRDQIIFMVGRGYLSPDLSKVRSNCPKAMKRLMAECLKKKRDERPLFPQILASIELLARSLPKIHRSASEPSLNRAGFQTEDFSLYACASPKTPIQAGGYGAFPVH

[4] = biological target: Cyclin-dependent kinase 3 (Homo sapiens) (UniProt Q00526); experiment: Inhibition of wild-type human full length CDK3 (M1 to H305 residues) expressed in bacterial expression system assessed as residual activity at 1 uM by Kinomescan method relative to control
[5] = biological target: Cyclin-dependent kinase-like 2 (Homo sapiens) (UniProt Q92772); experiment: Inhibition of wild-type human partial length CDKL2 (M1 to D327 residues) expressed in bacterial expression system assessed as residual activity at 1 uM by Kinomescan method relative to control
[6] = biological target: Serine/threonine-protein kinase 17B (Homo sapiens) (UniProt O94768); experiment: Inhibition of wild-type human full length DRAK2 (M1 to C372 residues) expressed in bacterial expression system assessed as residual activity at 1 uM by Kinomescan method relative to control
[7] = biological target: Eukaryotic translation initiation factor 2-alpha kinase 1 (Homo sapiens) (UniProt Q9BQI3); experiment: Inhibition of wild-type human partial length EIF2AK1 (Q147 to E603 residues) expressed in mammalian expression system assessed as residual activity at 1 uM by Kinomescan method relative to control
Homo sapiens = species: Homo sapiens; experiment: Inhibition of human partial length FLT3 ITD mutant expressed in bacterial expression system assessed as residual activity at 1 uM by Kinomescan method relative to control
[8] = biological target: Rhodopsin kinase GRK7 (Homo sapiens) (UniProt Q8WTQ7); experiment: Inhibition of wild-type human full length GRK7 (M1 to L553 residues) expressed in mammalian expression system assessed as residual activity at 1 uM by Kinomescan method relative to control
[9] = biological target: Serine/threonine-protein kinase haspin (Homo sapiens) (UniProt Q8TF76); experiment: Inhibition of wild-type human partial length HASPIN (I452 to K798 residues) expressed in mammalian expression system assessed as residual activity at 1 uM by Kinomescan method relative to control
[10] = biological target: Serine/threonine-protein kinase ICK (Homo sapiens) (UniProt Q9UPZ9); experiment: Inhibition of wild-type human partial length ICK (M1 to P314 residues) expressed in mammalian expression system assessed as residual activity at 1 uM by Kinomescan method relative to control
[11] = biological target: Inhibitor of nuclear factor kappa-B kinase subunit epsilon (Homo sapiens) (UniProt Q14164); experiment: Inhibition of wild-type human full length IKK-epsilon (M1 to V716 residues) expressed in mammalian expression system assessed as residual activity at 1 uM by Kinomescan method relative to control
Sequence of Inhibitor of nuclear factor kappa-B kinase subunit epsilon (Homo sapiens) (Q14164 whole entry, the tested form may be a part): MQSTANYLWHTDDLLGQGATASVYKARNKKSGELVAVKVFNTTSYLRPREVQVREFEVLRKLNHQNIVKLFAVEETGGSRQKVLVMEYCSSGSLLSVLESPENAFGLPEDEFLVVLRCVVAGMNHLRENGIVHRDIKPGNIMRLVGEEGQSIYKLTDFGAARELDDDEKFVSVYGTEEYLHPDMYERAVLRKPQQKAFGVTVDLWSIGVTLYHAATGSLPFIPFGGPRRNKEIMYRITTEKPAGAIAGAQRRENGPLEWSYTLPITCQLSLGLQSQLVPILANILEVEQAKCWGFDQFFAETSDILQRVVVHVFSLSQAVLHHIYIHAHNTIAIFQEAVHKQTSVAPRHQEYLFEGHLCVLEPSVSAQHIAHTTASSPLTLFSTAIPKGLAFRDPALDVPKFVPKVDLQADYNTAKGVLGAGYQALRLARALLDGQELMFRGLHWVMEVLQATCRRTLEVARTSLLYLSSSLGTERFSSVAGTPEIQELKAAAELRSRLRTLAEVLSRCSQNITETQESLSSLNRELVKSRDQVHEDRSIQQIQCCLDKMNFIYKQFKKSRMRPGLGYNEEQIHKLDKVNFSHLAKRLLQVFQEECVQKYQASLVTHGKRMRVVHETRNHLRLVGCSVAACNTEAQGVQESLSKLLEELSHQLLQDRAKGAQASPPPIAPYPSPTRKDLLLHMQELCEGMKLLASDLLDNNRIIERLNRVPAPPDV

[12] = biological target: Interleukin-1 receptor-associated kinase 3 (Homo sapiens) (UniProt Q9Y616); experiment: Inhibition of wild-type human partial length IRAK3 (V147 to E596 residues) expressed in bacterial expression system assessed as residual activity at 1 uM by Kinomescan method relative to control
[13] = biological target: Leucine-rich repeat serine/threonine-protein kinase 2 (Homo sapiens) (UniProt Q5S007); experiment: Inhibition of wild-type human partial length LRRK2 (H970 to E2527 residues) expressed in mammalian expression system assessed as residual activity at 1 uM by Kinomescan method relative to control
[14] = biological target: Mitogen-activated protein kinase kinase kinase 4 (Homo sapiens) (UniProt Q9Y6R4); experiment: Inhibition of wild-type human partial length MAP3K4 (G1319 to E1608 residues) expressed in bacterial expression system assessed as residual activity at 1 uM by Kinomescan method relative to control
[15] = tested on: Hepatocyte growth factor receptor (Homo sapiens), P08581 [M1250T]; experiment: Inhibition of human partial length MET M1250T mutant (D1010 to S1367 residues) expressed in bacterial expression system assessed as residual activity at 1 uM by Kinomescan method relative to control
[16] = biological target: Macrophage-stimulating protein receptor (Homo sapiens) (UniProt Q04912); experiment: Inhibition of wild-type human partial length MST1R (I1057 to L1363 residues) expressed in bacterial expression system assessed as residual activity at 1 uM by Kinomescan method relative to control
Sequence of Macrophage-stimulating protein receptor (Homo sapiens) (Q04912 25-304 limits assumed): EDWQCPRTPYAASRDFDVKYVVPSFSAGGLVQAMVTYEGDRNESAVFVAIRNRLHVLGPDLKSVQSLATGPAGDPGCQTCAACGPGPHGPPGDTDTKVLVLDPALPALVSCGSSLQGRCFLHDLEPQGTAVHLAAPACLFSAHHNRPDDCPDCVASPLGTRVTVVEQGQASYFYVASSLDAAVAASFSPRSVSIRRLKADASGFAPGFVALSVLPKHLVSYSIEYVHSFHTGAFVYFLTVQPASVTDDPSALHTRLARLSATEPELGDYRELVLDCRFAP
Sequence of Macrophage-stimulating protein receptor (Homo sapiens) (Q04912 310-1400 limits assumed): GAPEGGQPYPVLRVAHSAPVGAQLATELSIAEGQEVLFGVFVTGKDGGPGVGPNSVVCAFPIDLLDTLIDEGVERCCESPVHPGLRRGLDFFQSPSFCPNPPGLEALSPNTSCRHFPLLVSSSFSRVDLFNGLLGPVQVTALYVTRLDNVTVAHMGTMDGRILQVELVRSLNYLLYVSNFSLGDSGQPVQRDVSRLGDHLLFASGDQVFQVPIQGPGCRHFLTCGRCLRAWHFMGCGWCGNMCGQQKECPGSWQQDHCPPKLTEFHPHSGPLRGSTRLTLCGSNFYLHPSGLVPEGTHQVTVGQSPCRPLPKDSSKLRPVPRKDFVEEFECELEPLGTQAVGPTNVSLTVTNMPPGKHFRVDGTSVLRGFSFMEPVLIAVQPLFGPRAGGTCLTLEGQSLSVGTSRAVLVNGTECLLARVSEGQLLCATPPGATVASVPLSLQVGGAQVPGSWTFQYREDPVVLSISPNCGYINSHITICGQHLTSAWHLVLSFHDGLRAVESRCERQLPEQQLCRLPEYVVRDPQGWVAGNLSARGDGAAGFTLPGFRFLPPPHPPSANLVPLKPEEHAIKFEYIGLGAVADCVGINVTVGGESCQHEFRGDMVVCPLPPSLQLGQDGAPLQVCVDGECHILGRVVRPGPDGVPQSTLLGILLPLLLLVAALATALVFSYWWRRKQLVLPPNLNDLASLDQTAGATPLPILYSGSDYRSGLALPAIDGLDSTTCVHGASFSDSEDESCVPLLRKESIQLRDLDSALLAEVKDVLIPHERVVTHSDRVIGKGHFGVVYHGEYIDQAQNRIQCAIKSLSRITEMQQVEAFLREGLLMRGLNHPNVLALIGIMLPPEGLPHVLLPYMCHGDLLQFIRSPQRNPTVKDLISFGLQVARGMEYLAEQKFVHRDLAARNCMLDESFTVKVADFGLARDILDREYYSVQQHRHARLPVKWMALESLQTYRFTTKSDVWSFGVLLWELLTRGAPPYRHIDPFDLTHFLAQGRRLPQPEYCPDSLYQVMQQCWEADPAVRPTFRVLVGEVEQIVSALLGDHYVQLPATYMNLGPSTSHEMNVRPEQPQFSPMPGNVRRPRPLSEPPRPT

[17] = biological target: Serine/threonine-protein kinase Nek6 (Homo sapiens) (UniProt Q9HC98); experiment: Inhibition of wild-type human full length NEK6 (M8 to T313 residues) expressed in bacterial expression system assessed as residual activity at 1 uM by Kinomescan method relative to control
[18] = biological target: 1-phosphatidylinositol 3-phosphate 5-kinase (Homo sapiens) (UniProt Q9Y2I7); experiment: Inhibition of wild-type human partial length PIKFYVE (F1512 to C2098 residues) expressed in mammalian expression system assessed as residual activity at 1 uM by Kinomescan method relative to control
Sequence of 1-phosphatidylinositol 3-phosphate 5-kinase (Homo sapiens) (Q9Y2I7 whole entry, the tested form may be a part): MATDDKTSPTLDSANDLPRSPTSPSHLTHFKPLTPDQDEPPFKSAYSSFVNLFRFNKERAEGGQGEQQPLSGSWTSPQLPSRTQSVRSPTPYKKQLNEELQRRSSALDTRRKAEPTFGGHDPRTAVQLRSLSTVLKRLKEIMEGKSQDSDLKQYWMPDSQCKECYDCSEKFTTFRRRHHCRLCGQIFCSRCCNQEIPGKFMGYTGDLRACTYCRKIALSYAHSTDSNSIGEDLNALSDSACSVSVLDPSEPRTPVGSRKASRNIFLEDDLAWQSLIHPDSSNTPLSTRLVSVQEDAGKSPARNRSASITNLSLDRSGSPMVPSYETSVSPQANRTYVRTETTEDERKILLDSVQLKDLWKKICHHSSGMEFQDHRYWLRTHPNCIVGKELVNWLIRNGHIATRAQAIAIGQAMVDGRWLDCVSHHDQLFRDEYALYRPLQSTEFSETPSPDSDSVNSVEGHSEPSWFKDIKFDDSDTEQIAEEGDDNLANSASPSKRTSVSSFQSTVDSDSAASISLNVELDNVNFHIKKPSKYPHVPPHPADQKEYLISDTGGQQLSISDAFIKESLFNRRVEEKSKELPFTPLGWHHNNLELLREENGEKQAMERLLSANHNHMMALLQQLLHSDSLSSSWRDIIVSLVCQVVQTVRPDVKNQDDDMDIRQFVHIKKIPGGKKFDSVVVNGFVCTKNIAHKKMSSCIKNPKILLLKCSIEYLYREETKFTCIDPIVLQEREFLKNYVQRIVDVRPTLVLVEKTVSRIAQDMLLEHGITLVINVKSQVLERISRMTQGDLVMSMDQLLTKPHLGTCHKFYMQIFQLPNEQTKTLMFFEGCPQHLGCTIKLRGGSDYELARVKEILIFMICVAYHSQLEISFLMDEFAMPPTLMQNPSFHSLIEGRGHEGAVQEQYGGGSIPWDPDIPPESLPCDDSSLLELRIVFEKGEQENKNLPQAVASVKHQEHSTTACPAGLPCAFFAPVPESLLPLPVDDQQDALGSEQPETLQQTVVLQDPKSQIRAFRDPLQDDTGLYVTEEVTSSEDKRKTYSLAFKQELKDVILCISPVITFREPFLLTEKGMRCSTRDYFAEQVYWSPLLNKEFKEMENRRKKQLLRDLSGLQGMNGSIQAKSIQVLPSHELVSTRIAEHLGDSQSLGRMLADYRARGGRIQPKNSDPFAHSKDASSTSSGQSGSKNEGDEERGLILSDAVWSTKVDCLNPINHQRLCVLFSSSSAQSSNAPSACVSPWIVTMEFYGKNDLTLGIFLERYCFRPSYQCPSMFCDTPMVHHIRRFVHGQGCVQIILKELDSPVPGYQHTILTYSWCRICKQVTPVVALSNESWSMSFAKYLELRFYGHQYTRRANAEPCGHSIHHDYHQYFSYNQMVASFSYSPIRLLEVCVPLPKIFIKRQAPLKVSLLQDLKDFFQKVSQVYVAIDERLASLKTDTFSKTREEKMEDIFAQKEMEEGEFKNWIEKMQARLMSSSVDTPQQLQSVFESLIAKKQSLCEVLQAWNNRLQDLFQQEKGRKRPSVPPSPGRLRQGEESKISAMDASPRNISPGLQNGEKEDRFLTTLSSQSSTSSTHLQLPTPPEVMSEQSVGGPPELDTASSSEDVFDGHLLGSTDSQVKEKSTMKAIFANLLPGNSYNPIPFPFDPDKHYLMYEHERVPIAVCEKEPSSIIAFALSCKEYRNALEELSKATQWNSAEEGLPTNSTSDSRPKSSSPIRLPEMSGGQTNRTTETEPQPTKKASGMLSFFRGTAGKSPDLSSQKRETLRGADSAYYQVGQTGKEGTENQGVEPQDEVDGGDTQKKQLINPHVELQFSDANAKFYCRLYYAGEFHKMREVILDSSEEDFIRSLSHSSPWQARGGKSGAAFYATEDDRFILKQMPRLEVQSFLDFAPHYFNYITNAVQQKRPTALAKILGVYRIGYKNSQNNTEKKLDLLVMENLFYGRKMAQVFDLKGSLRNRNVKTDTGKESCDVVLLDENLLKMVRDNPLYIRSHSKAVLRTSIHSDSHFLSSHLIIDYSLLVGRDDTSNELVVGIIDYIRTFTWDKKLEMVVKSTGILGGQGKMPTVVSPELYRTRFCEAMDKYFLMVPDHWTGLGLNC

[19] = biological target: cAMP-dependent protein kinase catalytic subunit alpha (Homo sapiens) (UniProt P17612); experiment: Inhibition of wild-type human partial length PKAC-alpha (G10 to F351 residues) expressed in bacterial expression system assessed as residual activity at 1 uM by Kinomescan method relative to control
[20] = biological target: Interferon-induced, double-stranded RNA-activated protein kinase (Homo sapiens) (UniProt P19525); experiment: Inhibition of wild-type human partial length PRKR (F247 to C551 residues) expressed in bacterial expression system assessed as residual activity at 1 uM by Kinomescan method relative to control
[21] = biological target: Ribosomal protein S6 kinase alpha-4 (Homo sapiens) (UniProt O75676); experiment: Inhibition of wild-type human partial length N-terminal RPS6KA4 kinase domain 1 expressed in bacterial expression system assessed as residual activity at 1 uM by Kinomescan method relative to control
[22] = biological target: Ribosomal protein S6 kinase alpha-2 (Homo sapiens) (UniProt Q15349); experiment: Inhibition of wild-type human partial length N-terminal RSK3 kinase domain 1 (M1 to Q385 residues) expressed in bacterial expression system assessed as residual activity at 1 uM by Kinomescan method relative to control
[23] = biological target: Serine/threonine-protein kinase TNNI3K (Homo sapiens) (UniProt Q59H18); experiment: Inhibition of wild-type human full length TNNI3K (M1 to S835 residues) expressed in bacterial expression system assessed as residual activity at 1 uM by Kinomescan method relative to control

C=CC(=O)Nc1cc(Nc2cc(-c3cccc(NC(=O)c4ccc(C(C)(C)C)cc4)c3C)cn(C)c2=O)ccc1C(=O)N1CCOCC1
GI50 (U-937): 4.8 µM | Activity (PBMC): Non-Toxic | Activity [1]: 79% | Activity [2]: 96% | Activity [3]: 100% | Activity [4]: 97% | Activity [5]: 100% | Activity [6]: 94% | Activity [7]: 84% | Activity (Homo sapiens): 90% | Activity [8]: 94% | Activity [9]: 54% | Activity [10]: 100% | Activity [11]: 100% | Activity [12]: 96% | Activity [13]: 100% | Activity [14]: 89% | Activity [15]: 98% | Activity [16]: 97% | Activity [17]: 98% | Activity [18]: 96% | Activity [19]: 95% | Activity [20]: 100% | Activity [21]: 97% | Activity [22]: 92% | Activity [23]: 37%
